Assay results from patent publication US6562804B2, “Hair-growing agent” (Kyowa Hakko Kogyo Co., Ltd., priority 2001, dated 2003).

Tested on: mouse hair follicle epithelial cells
Test: Cell growth-promoting effect on cultured mouse hair follicle epithelial cells (MTT)
Format: cell-based
Conditions: C3H mouse hair follicle epithelial cells, 5 days culture, DMSO control = 100
Procedure: Mouse hair follicle epithelial cells were separated and cultured according to a modification of the method of Tanigaki, et al. [Archives of Dermatological Research, 284, 290-296 (1992)].
The skin on the back of a 4-days-old C3H mouse (Charles River Japan, Inc.) was cut off and treated with MEM (Eagle's Minimum Essential Medium) containing 500 units/ml Dispase (Godo Shusei Co., Ltd.) and 5% fetal calf serum (FCS) at 4° C. for 16 hours.
Then, the epidermis was stripped from the skin section, and the obtained dermis layer was treated with DMEM (Dulbecco's modified Eagle Medium) containing 0.25% Collagenase N-2 (Nitta Gelatin Co., Ltd.) and 10% FCS at 37° C. for one hour to obtain a dermis suspension. The dermis suspension was filtered through a 212-μm nylon mesh (Nippon Rikagaku Kikai Co., Ltd.) and the filtrate was centrifuged at 1000 rpm for 5 minutes to obtain pellets containing hair follicle tissue. To the pellets was added calcium/magnesium-free PBS (Dulbecco's Phosphate-Buffered Saline) and the pellets were suspended therein using a pipette. The resulting suspension was allowed to stand for 15 minutes to precipitate hair follicle tissue. The same procedure as above (addition of calcium/magnesium-free PBS, suspending by use of a pipette, and precipitation by allowing the suspension to stand for 15 minutes) was repeated three times using the obtained hair follicle tissue.
Then, the hair follicle tissue was treated with a solution containing 0.1% ethylenediaminetetraacetic acid (EDTA) and 0.25% trypsin (Gibco) at 37° C. for 5 minutes. To the resulting mixture was added DMEM containing 10% FCS to prepare a hair follicle tissue cell suspension having a density of 3×10^5 cells/ml. The hair follicle tissue cell suspension was put into wells of a 24-well collagen-coated plate (Iwaki Glass Co., Ltd.) in an amount of 1 ml/well, followed by culturing in 5% CO2 at 37° C. for 24 hours.
During the culturing, the medium was replaced with a fresh one every other day.
As a control, the cells were cultured in the same medium as above except that DMSO alone was added in an amount of 1/100 by volume in place of DMSO containing a phosphatidic acid, and/or procyanidin B-2 or dl-α-tocopherol.
The degree of cell growth was measured according to the method using MTT [3-(4,5-dimethylthiazol-2-yl)-2,5-diphenyl tetrazolium bromide]
To each well of the 24-well microplate (2 cm^2/well) was added a PBS solution of MTT (5 mg/ml) in an amount of 1/10 by volume based on 1 ml of the culture. The plate was shaken to make the mixture homogeneous, followed by culturing in 5% CO2 at 37° C. for 4 hours.

| Compound | Relative cell growth rate based on the control as 100 (active ingredient 30 μmol/l) | Relative cell growth rate based on the control as 100 (active ingredient 1 μmol/l) |
| --- | --- | --- |
| Cc1c(C)c2c(c(C)c1O)CCC(C)(CCCC(C)CCCC(C)CCCC(C)C)O2 (racemic) [dl-α-Tocopherol, dl-α-tocopherol, reference compound] | 184 |  |
| CCCCCCCCCCCCCCCCOCC(COP(=O)(O)O)OC(C)=O (centres unmarked) [1-O-hexadecyl-2-O-acetylglyceryl-3-phosphoric acid] |  | 155 |
| CCCCCCCCCCCCCCCCOCC(COP(=O)(O)O)OC (centres unmarked) [1-O-hexadecyl-2-O-methylglyceryl-3-phosphoric acid] |  | 177 |
| CCCCCCCC/C=C\CCCCCCCC(=O)OCC(COP(=O)(O)O)OC (centres unmarked) [1-O-oleoyl-2-O-methylglyceryl-3-phosphoric acid] |  | 163 |
| Oc1cc(O)c2c(c1)O[C@H](c1ccc(O)c(O)c1)[C@H](O)[C@H]2c1c(O)cc(O)c2c1O[C@H](c1ccc(O)c(O)c1)[C@H](O)C2 [Procyanidin B-2, epicatechin-(4β→8)-epicatechin] | 310 |  |
